Patent US20130011361A1, “PYRAZOLE DERIVATIVES WHICH MODULATE STEAROYL-COA DESATURASE” (XENON PHARMACEUTICALS INC., priority 2009, published 2013)

Assays:
[1] = molecular target: T1, stearoyl-CoA desaturase (SCD1) (Mus musculus, UniProt P13516); assay: SCD inhibition assay using mouse liver microsomes (release of 3H2O from [9,10-3H]stearoyl-CoA); assay type: biochemical; conditions: 15 min incubation, 25° C., read-out: Microsomal IC50
T1 construct: Reactions are started by adding 50 μL of microsomes (1.25 mg/mL); from tissue; host or cells: liver microsomes of male ICR outbred mice on a high-carbohydrate, low-fat diet
T1 sequence (P13516 1-355): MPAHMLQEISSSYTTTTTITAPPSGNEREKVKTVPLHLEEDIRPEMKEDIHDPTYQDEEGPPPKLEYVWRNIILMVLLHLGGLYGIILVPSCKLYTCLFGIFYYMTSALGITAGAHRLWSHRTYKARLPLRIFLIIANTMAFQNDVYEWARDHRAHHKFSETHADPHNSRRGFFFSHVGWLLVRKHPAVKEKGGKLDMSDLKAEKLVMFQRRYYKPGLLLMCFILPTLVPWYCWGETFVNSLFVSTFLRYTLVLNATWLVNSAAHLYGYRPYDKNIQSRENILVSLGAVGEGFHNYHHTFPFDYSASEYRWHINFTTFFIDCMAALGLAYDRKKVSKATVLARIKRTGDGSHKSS
Experimental: Measuring Stearoyl-CoA Desaturase Inhibition Activity of a Test Compound Using Mouse Liver Microsomes
Livers are immediately rinsed with cold 0.9% NaCl solution, weighed and minced with scissors. All procedures are performed at 4° C. unless specified otherwise. Livers are homogenized in a solution (1/3 w/v) containing 0.25 M sucrose, 62 mM potassium phosphate buffer (pH 7.0), 0.15 M KCl, 15 mM N-acetyleysteine, 5 mM MgCl2, and 0.1 mM EDTA using 4 strokes of a Potter-Elvehjem tissue homogenizer. The homogenate is centrifuged at 10,400×g for 20 min to eliminate mitochondria and cellular debris. The supernatant is filtered through a 3-layer cheesecloth and centrifuged at 105,000×g for 60 min. The microsomal pellet is gently resuspended in the same homogenization solution with a small glass/teflon homogenizer and stored at ˜70° C. The absence of mitochondrial contamination is enzymatically assessed. The protein concentration is measured using bovine serum albumin as the standard.
Desaturase activity is measured as the release of ^3H2O from [9,10-^3H]stearoyl-CoA. Reactions per assay point conditions are as follows: 2 μL 1.5 mM stearoyl-CoA, 0.25 μL 1 mCi/mL ^3H stearoyl CoA, 10 μL 20 mM NADH, 36.75 μL 0.1 M PK buffer (K2HPO4/NaH2PO4, pH 7.2). The test compound or control solution is added in a 1 μL volume. […] The plates are mixed and after 15 min incubation on a heating block (25° C.), the reactions are stopped by the addition of 10 μL 60% PCA. An aliquot of 100 μL is then transferred to a filter plate pretreated with charcoal and the plate centrifuged at 4000 rpm for 1 minute. The flow through containing the ^3H2O released by the SCD1 desaturation reaction is added to scintillation fluid and the radioactivity measured in a Packard TopCount. The data is analysed to identify the IC50 for test compounds and reference compounds.
The activity was defined in terms of % SCD enzyme activity remaining at the desired concentration of the test compound or as the IC50 concentration.

With `O=C(NCc1ccncc1)c1cc(-n2cnn(Cc3ccc(F)cc3)c2=O)n[nH]1` [Example 8.8, 3-(1-(4-fluorobenzyl)-5-oxo-1H-1,2,4-triazol-4(5H)-yl)-N-(pyridin-4-ylmethyl)-1H-pyrazole-5-carboxamide] as the compound, how does the melting point read?
The melting point was 262 to 263 °C.

What about the IC50 [1] of the same compound?
The IC50 was 65 nM.

What does the source list for `O=C(NCc1cccnc1)c1cc(-n2cnn(Cc3ccc(F)cc3)c2=O)n[nH]1` [Example 2, 3-(1-(4-fluorobenzyl)-5-oxo-1H-1,2,4-triazol-4(5H)-yl)-N-(pyridin-3-ylmethyl)-1H-pyrazole-3-carboxamide]?
melting point: 235 to 236 °C; IC50 [1]: 7 nM

For `Cn1cc(CNC(=O)c2cc(N3CCN(Cc4ccc(F)cc4)C3=O)n[nH]2)cn1` [Example 8.1, 3-(3-(4-fluorobenzyl)-2-oxoimidazolidin-1-yl)-N-((1-methyl-1H-pyrazol-4-yl)methyl)-1H-pyrazole-5-carboxamide], which melting point is on record?
Its melting point is 244 to 245 °C.

And the IC50 [1]?
The IC50 was 122 nM.

Which results are given for `O=C(NCc1cccnc1)c1cc(N2CCN(Cc3ccc(F)cc3)C2=O)n[nH]1` [Example 6, 3-(3-(4-fluorobenzyl)-2-oxoimidazolidin-1-yl)-N-(pyridin-3-ylmethyl)-1H-pyrazole-5-carboxamide]?
melting point: 251 to 253 °C; IC50 [1]: 3 nM

With `O=C(NCc1ccccc1)c1cc(-n2cnn(Cc3ccc(F)cc3)c2=O)n[nH]1` [Example 2.1, N-benzyl-3-(1-(4-fluorobenzyl)-5-oxo-1H-1,2,4-triazol-4(5H)-yl)-1H-pyrazole-5-carboxamide] as the compound, how does the IC50 [1] read?
Its IC50 is 6 nM.

Which results are given for `O=C(NCc1ccc(F)c(F)c1)c1cc(-n2cnn(Cc3ccc(F)cc3)c2=O)n[nH]1` [Example 1, N-(3,4-difluorobenzyl)-3-(1-(4-fluorobenzyl)-5-oxo-1H-1,2,4-triazol-4(5H)-yl)-1H-pyrazole-5-carboxamide]?
melting point: 208 to 209 °C; IC50 [1]: 8 nM

Which results are given for `CNC(=O)c1cc(-n2cnn(Cc3ccc(F)cc3)c2=O)n[nH]1` [Example 2.2, 3-(1-(4-Fluorobenzyl)-5-oxo-1H-1,2,4-triazol-4(5H)-yl)-N-methyl-1H-pyrazole-5-carboxamide]?
melting point: 268 to 269 °C; IC50 [1]: 385 nM

What does the source list for `Cc1cc(CNC(=O)c2cc(-n3cnn(Cc4ccc(F)cc4)c3=O)n[nH]2)no1` [Example 7, 3-(1-(4-fluorobenzyl)-5-oxo-1H-1,2,4-triazol-4(5H)-yl)-N-((5-methylisoxazol-3-yl)methyl)-1H-pyrazole-5-carboxamide]?
melting point: 276 to 277 °C; IC50 [1]: 22 nM

Which IC50 [1] does the source give for `O=C(NCc1ccccc1)c1cc(N2CCN(Cc3ccc(F)cc3)C2=O)n[nH]1` [Example 8.3, N-benzyl-3-(3-(4-fluorobenzyl)-2-oxoimidazolidin-1-yl)-1H-pyrazole-5-carboxamide] here?
Its IC50 is 11 nM.

What does the source list for `NC(=O)c1cc(-n2cnn(Cc3ccc(F)cc3)c2=O)n[nH]1` [Example 8.5, 3-(1-(4-fluorobenzyl)-5-oxo-1H-1,2,4-triazol-4(5H)-yl)-1H-pyrazole-5-carboxamide]?
melting point: > 270 °C; IC50 [1]: 488 nM

Which melting point does the source give for `O=C(NCc1cocn1)c1cc(-n2cnn(Cc3ccc(F)cc3)c2=O)n[nH]1` [Example 8.6, 3-(1-(4-fluorobenzyl)-5-oxo-1H-1,2,4-triazol-4(5H)-yl)-N-(oxazol-4-ylmethyl)-1H-pyrazole-5-carboxamide] here?
Its melting point is 267 to 268 °C.

And the IC50 [1]?
The IC50 was 165 nM.

Which melting point does the source give for `O=C(NCc1ccccn1)c1cc(-n2cnn(Cc3ccc(F)cc3)c2=O)n[nH]1` [Example 8, 3-(1-(4-fluorobenzyl)-5-oxo-1H-1,2,4-triazol-4(5H)-yl)-N-(pyridin-2-ylmethyl)-1H-pyrazole-5-carboxamide] here?
Its melting point is 224 to 225 °C.

And the IC50 [1]?
The IC50 was 23 nM.

With `Cc1cc(CNC(=O)c2cc(N3CCN(Cc4ccc(F)cc4)C3=O)n[nH]2)n[nH]1` [Example 4, 3-(3-(4-fluorobenzyl)-2-oxoimidazolidin-1-yl)-N-((5-methyl-1H-pyrazol-3-yl)methyl)-1H-pyrazole-5-carboxamide] as the compound, how does the melting point read?
Its melting point is 254 to 255 °C.

What about the IC50 [1] of the same compound?
The IC50 was 88 nM.

With `O=C(NCc1nccs1)c1cc(N2CCN(Cc3ccc(F)cc3)C2=O)n[nH]1` [Example 8.2, 3-(3-(4-fluorobenzyl)-2-oxoimidazolidin-1-yl)-N-(thiazol-2-ylmethyl)-1H-pyrazole-5-carboxamide] as the compound, how does the melting point read?
Its melting point is 272 to 274 °C.

And the IC50 [1]?
The IC50 was 8 nM.

With `NC(=O)c1cc(N2CCN(Cc3ccc(F)cc3)C2=O)n[nH]1` [Example 8.4, 3-(3-(4-fluorobenzyl)-2-oxoimidazolidin-1-yl)-1H-pyrazole-5-carboxamide] as the compound, how does the melting point read?
The melting point was 256 to 258 °C.

What about the IC50 [1] of the same compound?
The IC50 was 368 nM.

Which results are given for `O=C(NCc1ccccn1)c1cc(N2CCN(Cc3ccc(F)cc3)C2=O)n[nH]1` [Example 3, 3-(3-(4-fluorobenzyl)-2-oxoimidazolidin-1-yl)-N-(pyridin-2-ylmethyl)-1H-pyrazole-5-carboxamide]?
melting point: 235 to 237 °C; IC50 [1]: 45 nM

Which melting point does the source give for `Cc1cc(CNC(=O)c2cc(N3CCN(Cc4ccc(F)cc4)C3=O)n[nH]2)no1` [Example 5, 3-(3-(4-fluorobenzyl)-2-oxoimidazolidin-1-yl)-N-((5-methylisoxazol-3-yl)methyl)-1H-pyrazole-5-carboxamide] here?
The melting point was 294 to 296 °C (dec.).

And the IC50 [1]?
The IC50 was 37 nM.
